Results published in the NIST ThermoML archive (doi:10.1016/j.tca.2013.03.010).
± gives the expanded uncertainty stated by the source.

Legend:
[1] = 101 kPa, Liquid; for viscosity: Capillary tube (Ostwald / Ubbelohde) method; for mass density: Vibrating tube method
[2] = xn = mol fraction of the nth substance listed; conditions: 101 kPa, Liquid; for viscosity: Capillary tube (Ostwald / Ubbelohde) method; for mass density: Vibrating tube method

OCCO [1,2-ethanediol]
[1]
Conditions | mass density [kg/m3] | viscosity [mPa·s]
298.15 K | – | 16.87 ± 0.18
303.15 K | 1106 ± 1.1 | 13.59 ± 0.15
308.15 K | – | 11.34 ± 0.12

OCCO [1,2-ethanediol] + CC(O)CO
[2], x1 = 1
Conditions | mass density [kg/m3] | viscosity [mPa·s]
298.15 K | – | 16.87 ± 0.18
303.15 K | 1106 ± 1.1 | 13.59 ± 0.15
308.15 K | – | 11.34 ± 0.12

OCCO [1,2-ethanediol] + OCCCO
[2], x1 = 1
Conditions | mass density [kg/m3] | viscosity [mPa·s]
298.15 K | – | 16.87 ± 0.18
303.15 K | 1106 ± 1.1 | 13.59 ± 0.15
308.15 K | – | 11.34 ± 0.12

CC(O)CO (stereo not given) [1,2-propanediol]
[1]
Conditions | mass density [kg/m3] | viscosity [mPa·s]
298.15 K | 1032.7 ± 0.2 | 44.78 ± 0.2
303.15 K | 1028.8 ± 0.2 | 33.75 ± 0.15
308.15 K | 1025.2 ± 0.2 | 27 ± 0.12

CC(O)CO (stereo not given) [1,2-propanediol] + OCCCO
[2], x1 = 1
Conditions | mass density [kg/m3] | viscosity [mPa·s]
298.15 K | 1032.7 ± 0.2 | 44.78 ± 0.2
303.15 K | 1028.8 ± 0.2 | 33.75 ± 0.15
308.15 K | 1025.2 ± 0.2 | 27 ± 0.12

CC(O)CO (stereo not given) [1,2-propanediol] + OCCO
[2]
Conditions | mass density, 298.15 K [kg/m3] | mass density, 303.15 K [kg/m3] | mass density, 308.15 K [kg/m3] | viscosity, 298.15 K [mPa·s] | viscosity, 303.15 K [mPa·s] | viscosity, 308.15 K [mPa·s]
x2 = 0 | 1032.7 ± 0.2 | 1028.8 ± 0.2 | 1025.2 ± 0.2 | 44.78 ± 0.2 | 33.75 ± 0.15 | 27 ± 0.12
x2 = 0.1208 | 1041 ± 0.2 | 1036.9 ± 0.2 | 1033.3 ± 0.2 | 42.41 ± 0.21 | 32.1 ± 0.16 | 25.65 ± 0.13
x2 = 0.2353 | 1048.6 ± 0.3 | 1044.6 ± 0.3 | 1041 ± 0.3 | 40.03 ± 0.22 | 30.14 ± 0.17 | 24.13 ± 0.13
x2 = 0.3454 | 1056.1 ± 0.3 | 1052.1 ± 0.3 | 1048.5 ± 0.3 | 37.28 ± 0.23 | 28.08 ± 0.17 | 22.51 ± 0.14
x2 = 0.4345 | 1062.3 ± 0.3 | 1058.4 ± 0.3 | 1054.7 ± 0.3 | 34.74 ± 0.23 | 26.24 ± 0.18 | 21.05 ± 0.14
x2 = 0.5508 | 1070.8 ± 0.4 | 1066.9 ± 0.4 | 1063.4 ± 0.4 | 31.35 ± 0.23 | 23.8 ± 0.18 | 19.11 ± 0.14
x2 = 0.6303 | 1077 ± 0.5 | 1073.1 ± 0.5 | 1069.5 ± 0.5 | 28.91 ± 0.23 | 22.06 ± 0.18 | 17.78 ± 0.14
x2 = 0.7473 | 1086.6 ± 0.6 | 1082.7 ± 0.6 | 1079.2 ± 0.6 | 25.33 ± 0.23 | 19.52 ± 0.18 | 15.82 ± 0.14
x2 = 0.8302 | 1093.7 ± 0.8 | 1089.8 ± 0.8 | 1086.4 ± 0.8 | 22.72 ± 0.22 | 17.62 ± 0.17 | 14.39 ± 0.14
x2 = 0.9065 | 1100.6 ± 0.9 | 1096.8 ± 0.9 | 1093.4 ± 0.9 | 20.16 ± 0.2 | 15.86 ± 0.16 | 13.07 ± 0.13

OCCCO [propan-1,3-diol]
[1]
Conditions | mass density [kg/m3] | viscosity [mPa·s]
298.15 K | 1049.6 ± 0.9 | 41.36 ± 0.45
303.15 K | 1046.2 ± 0.9 | 32.78 ± 0.36
308.15 K | 1043.1 ± 0.9 | 26.34 ± 0.29

OCCCO [propan-1,3-diol] + CC(O)CO
[2]
Conditions | mass density, 298.15 K [kg/m3] | mass density, 303.15 K [kg/m3] | mass density, 308.15 K [kg/m3] | viscosity, 298.15 K [mPa·s] | viscosity, 303.15 K [mPa·s] | viscosity, 308.15 K [mPa·s]
x2 = 0 | 1049.6 ± 0.9 | 1046.2 ± 0.9 | 1043.1 ± 0.9 | 41.36 ± 0.45 | 32.78 ± 0.36 | 26.34 ± 0.29
x2 = 0.1002 | 1049.1 ± 0.8 | 1046 ± 0.8 | 1043 ± 0.8 | 41.77 ± 0.42 | 32.93 ± 0.33 | 26.45 ± 0.27
x2 = 0.2105 | 1048.3 ± 0.6 | 1045.6 ± 0.6 | 1042.8 ± 0.6 | 42.23 ± 0.39 | 33.12 ± 0.31 | 26.56 ± 0.25
x2 = 0.2994 | 1047.8 ± 0.5 | 1045.1 ± 0.5 | 1042.2 ± 0.5 | 42.59 ± 0.36 | 33.26 ± 0.28 | 26.66 ± 0.23
x2 = 0.4088 | 1046.9 ± 0.4 | 1044.1 ± 0.4 | 1041 ± 0.4 | 43.02 ± 0.33 | 33.43 ± 0.26 | 26.75 ± 0.21
x2 = 0.5002 | 1045.9 ± 0.4 | 1043 ± 0.4 | 1039.9 ± 0.4 | 43.38 ± 0.31 | 33.56 ± 0.24 | 26.84 ± 0.19
x2 = 0.5937 | 1044.7 ± 0.3 | 1041.7 ± 0.3 | 1038.5 ± 0.3 | 43.73 ± 0.28 | 33.66 ± 0.22 | 26.91 ± 0.18
x2 = 0.7125 | 1042.6 ± 0.3 | – | – | 44.08 ± 0.25 | 33.73 ± 0.2 | 26.94 ± 0.16
x2 = 0.7126 | – | 1039.3 ± 0.3 | 1036 ± 0.3 | – | – | –
x2 = 0.7996 | 1040.2 ± 0.2 | 1036.7 ± 0.2 | 1033.5 ± 0.2 | 44.31 ± 0.23 | 33.75 ± 0.18 | 26.96 ± 0.14
x2 = 0.9217 | 1036.5 ± 0.2 | 1033 ± 0.2 | 1029.7 ± 0.2 | 44.62 ± 0.21 | 33.76 ± 0.16 | 26.99 ± 0.13

OCCCO [propan-1,3-diol] + OCCO
[2]
Conditions | mass density, 298.15 K [kg/m3] | mass density, 303.15 K [kg/m3] | mass density, 308.15 K [kg/m3] | viscosity, 298.15 K [mPa·s] | viscosity, 303.15 K [mPa·s] | viscosity, 308.15 K [mPa·s]
x2 = 0 | 1049.6 ± 0.9 | 1046.2 ± 0.9 | 1043.1 ± 0.9 | 41.36 ± 0.45 | 32.78 ± 0.36 | 26.34 ± 0.29
x2 = 0.1107 | 1055.3 ± 1 | 1051.7 ± 0.9 | 1048.5 ± 0.9 | 39.55 ± 0.43 | 31.2 ± 0.34 | 24.94 ± 0.27
x2 = 0.2024 | 1060.1 ± 1 | 1056.5 ± 1 | 1053.1 ± 0.9 | 37.7 ± 0.41 | 29.75 ± 0.32 | 23.7 ± 0.26
x2 = 0.3597 | 1069.3 ± 1 | 1065.7 ± 1 | 1061.9 ± 1 | 34.33 ± 0.37 | 26.96 ± 0.29 | 21.43 ± 0.23
x2 = 0.4617 | 1075.7 ± 1 | 1072 ± 1 | 1068.1 ± 1 | 31.96 ± 0.35 | 25.06 ± 0.27 | 19.91 ± 0.22
x2 = 0.551 | 1081.4 ± 1 | 1077.6 ± 1 | 1073.6 ± 1 | 29.75 ± 0.32 | 23.32 ± 0.25 | 18.56 ± 0.2
x2 = 0.6258 | 1086.2 ± 1 | 1082.3 ± 1 | 1078.3 ± 1 | 27.76 ± 0.3 | 21.77 ± 0.24 | 17.39 ± 0.19
x2 = 0.7354 | 1093.1 ± 1 | 1089.2 ± 1 | 1085.2 ± 1 | 24.77 ± 0.27 | 19.45 ± 0.21 | 15.66 ± 0.17
x2 = 0.8285 | 1099.1 ± 1 | 1095.2 ± 1 | 1091.1 ± 1 | 22.09 ± 0.24 | 17.39 ± 0.19 | 14.15 ± 0.15
x2 = 0.9105 | 1104.5 ± 1.1 | 1100.7 ± 1 | 1096.5 ± 1 | 19.62 ± 0.21 | 15.64 ± 0.17 | 12.82 ± 0.14
